In ChEMBL document CHEMBL4507263, “Data for DCP probe BAY-474” (2021) one finds residual activity, inhibition and IC50 data, which are given here for two molecules.

Calls of active or inactive are those of the source. The calls are words filed in the database; no cut-off is given here.

Assay [1] has as its target Serine/threonine-protein kinase 4 (Homo sapiens) (UniProt Q13043). Conditions: Compound concentration 1000.0 nM.
For assay [2], the system named is Hepatocyte growth factor receptor (Homo sapiens), P08581 [Y1235D]. The conditions noted are these: Compound concentration 1000.0 nM.
The target of assay [3] is Serine/threonine-protein kinase NIM1 (Homo sapiens) (UniProt Q8IY84). Conditions: Compound concentration 1000.0 nM.
Assay [4] has as its system Epidermal growth factor receptor (Homo sapiens), P00533 [L858R,T790M]. Conditions: Compound concentration 1000.0 nM.
Assay [5] concerns the target Serine/threonine-protein kinase PknB (Mycobacterium tuberculosis) (UniProt P9WI81). Conditions: Compound concentration 1000.0 nM.
In assay [6] the target is Protein-tyrosine kinase 2-beta (Homo sapiens) (UniProt Q14289). The conditions noted are these: Compound concentration 1000.0 nM.
The target in assay [7] is Tyrosine-protein kinase FRK (Homo sapiens) (UniProt P42685). The conditions noted are these: Compound concentration 1000.0 nM.
Sequence of Tyrosine-protein kinase FRK (Homo sapiens) (P42685 whole entry): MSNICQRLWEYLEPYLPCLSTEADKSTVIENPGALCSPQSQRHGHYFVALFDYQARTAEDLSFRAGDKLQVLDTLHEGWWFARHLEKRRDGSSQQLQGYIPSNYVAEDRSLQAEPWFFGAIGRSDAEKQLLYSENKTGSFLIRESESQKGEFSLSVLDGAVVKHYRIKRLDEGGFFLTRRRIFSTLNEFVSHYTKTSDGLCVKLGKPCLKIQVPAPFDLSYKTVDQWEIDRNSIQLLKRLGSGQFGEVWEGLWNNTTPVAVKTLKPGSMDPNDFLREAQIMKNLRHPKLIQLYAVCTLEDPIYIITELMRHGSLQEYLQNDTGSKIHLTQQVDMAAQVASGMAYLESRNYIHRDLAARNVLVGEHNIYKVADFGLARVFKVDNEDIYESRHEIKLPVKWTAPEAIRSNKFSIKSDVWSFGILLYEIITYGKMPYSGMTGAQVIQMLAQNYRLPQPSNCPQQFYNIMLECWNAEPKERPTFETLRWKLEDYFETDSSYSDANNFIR
In assay [8] the target is Ephrin type-B receptor 6 (Homo sapiens) (UniProt O15197). Conditions: Compound concentration 1000.0 nM.
Assay [9] deals with Ribosomal protein S6 kinase alpha-1 (Homo sapiens) (UniProt Q15418). The conditions noted are these: Compound concentration 1000.0 nM.
Sequence of Ribosomal protein S6 kinase alpha-1 (Homo sapiens) (Q15418 whole entry): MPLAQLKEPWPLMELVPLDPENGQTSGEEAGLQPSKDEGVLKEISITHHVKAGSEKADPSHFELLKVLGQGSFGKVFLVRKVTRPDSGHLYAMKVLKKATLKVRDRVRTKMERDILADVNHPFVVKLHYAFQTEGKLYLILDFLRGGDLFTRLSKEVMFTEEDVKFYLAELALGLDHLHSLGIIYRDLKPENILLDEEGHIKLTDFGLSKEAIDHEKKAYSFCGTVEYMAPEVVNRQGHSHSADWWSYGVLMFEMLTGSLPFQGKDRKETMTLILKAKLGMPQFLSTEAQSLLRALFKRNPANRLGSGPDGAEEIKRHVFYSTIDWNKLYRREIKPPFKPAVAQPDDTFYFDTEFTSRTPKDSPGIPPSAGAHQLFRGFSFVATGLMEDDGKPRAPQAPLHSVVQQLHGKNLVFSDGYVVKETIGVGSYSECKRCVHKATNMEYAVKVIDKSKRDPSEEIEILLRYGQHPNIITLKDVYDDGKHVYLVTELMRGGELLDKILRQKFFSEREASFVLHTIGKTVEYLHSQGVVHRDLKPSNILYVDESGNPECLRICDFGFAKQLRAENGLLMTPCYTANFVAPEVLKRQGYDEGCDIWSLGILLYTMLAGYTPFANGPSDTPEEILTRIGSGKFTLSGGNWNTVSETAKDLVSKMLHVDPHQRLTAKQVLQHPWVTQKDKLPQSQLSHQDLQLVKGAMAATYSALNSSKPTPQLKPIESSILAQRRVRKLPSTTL
Assay [10] has as its target Serine/threonine-protein kinase 26 (Homo sapiens) (UniProt Q9P289). Conditions: Compound concentration 1000.0 nM.
The target of assay [11] is Cyclin-dependent kinase 13 (Homo sapiens) (UniProt Q14004). The conditions noted are these: Compound concentration 1000.0 nM.
Assay [12] concerns the target Cyclin-dependent kinase-like 5 (Homo sapiens) (UniProt O76039). The conditions noted are these: Compound concentration 1000.0 nM.
Assay [13] addresses Ribosomal protein S6 kinase alpha-4 (Homo sapiens) (UniProt O75676). Conditions: Compound concentration 1000.0 nM.
The test system of assay [14] is Receptor-type tyrosine-protein kinase FLT3 (Homo sapiens), P36888 [R834Q]. Conditions: Compound concentration 1000.0 nM.
The subject of assay [15] is Tyrosine-protein kinase ABL1 (Homo sapiens), P00519 [F317L]. Conditions: Compound concentration 1000.0 nM.
Assay [16] deals with Phosphatidylinositol 4,5-bisphosphate 3-kinase catalytic subunit beta isoform (Homo sapiens) (UniProt P42338). The conditions noted are these: Compound concentration 1000.0 nM.
The target of assay [17] is Bone morphogenetic protein receptor type-2 (Homo sapiens) (UniProt Q13873). Conditions: Compound concentration 1000.0 nM.
Assay [18] deals with Mitogen-activated protein kinase kinase kinase 10 (Homo sapiens) (UniProt Q02779). The conditions noted are these: Compound concentration 1000.0 nM.
In assay [19] the target is Insulin receptor (Homo sapiens) (UniProt P06213). Conditions: Compound concentration 1000.0 nM.
Sequence of Insulin receptor (Homo sapiens) (P06213 28-758 limits assumed): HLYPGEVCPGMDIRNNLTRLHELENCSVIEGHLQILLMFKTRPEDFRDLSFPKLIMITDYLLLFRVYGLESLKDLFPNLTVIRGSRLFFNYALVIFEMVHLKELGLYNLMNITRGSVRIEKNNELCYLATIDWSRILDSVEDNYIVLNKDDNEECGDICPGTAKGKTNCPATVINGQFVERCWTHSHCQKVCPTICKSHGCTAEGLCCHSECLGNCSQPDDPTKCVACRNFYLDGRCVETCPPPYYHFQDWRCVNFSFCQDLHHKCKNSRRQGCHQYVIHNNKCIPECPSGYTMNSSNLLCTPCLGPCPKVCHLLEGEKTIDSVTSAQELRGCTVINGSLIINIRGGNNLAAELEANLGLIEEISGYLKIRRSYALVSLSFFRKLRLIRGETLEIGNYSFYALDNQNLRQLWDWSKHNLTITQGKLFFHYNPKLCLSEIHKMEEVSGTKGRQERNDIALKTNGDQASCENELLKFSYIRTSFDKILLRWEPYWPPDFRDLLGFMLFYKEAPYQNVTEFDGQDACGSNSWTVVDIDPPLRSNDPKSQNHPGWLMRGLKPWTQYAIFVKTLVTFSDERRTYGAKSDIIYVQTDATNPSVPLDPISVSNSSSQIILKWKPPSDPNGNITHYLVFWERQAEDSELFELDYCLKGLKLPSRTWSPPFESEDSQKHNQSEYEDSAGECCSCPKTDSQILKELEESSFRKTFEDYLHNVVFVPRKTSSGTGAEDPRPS
Sequence of Insulin receptor (Homo sapiens) (P06213 763-1382 limits assumed): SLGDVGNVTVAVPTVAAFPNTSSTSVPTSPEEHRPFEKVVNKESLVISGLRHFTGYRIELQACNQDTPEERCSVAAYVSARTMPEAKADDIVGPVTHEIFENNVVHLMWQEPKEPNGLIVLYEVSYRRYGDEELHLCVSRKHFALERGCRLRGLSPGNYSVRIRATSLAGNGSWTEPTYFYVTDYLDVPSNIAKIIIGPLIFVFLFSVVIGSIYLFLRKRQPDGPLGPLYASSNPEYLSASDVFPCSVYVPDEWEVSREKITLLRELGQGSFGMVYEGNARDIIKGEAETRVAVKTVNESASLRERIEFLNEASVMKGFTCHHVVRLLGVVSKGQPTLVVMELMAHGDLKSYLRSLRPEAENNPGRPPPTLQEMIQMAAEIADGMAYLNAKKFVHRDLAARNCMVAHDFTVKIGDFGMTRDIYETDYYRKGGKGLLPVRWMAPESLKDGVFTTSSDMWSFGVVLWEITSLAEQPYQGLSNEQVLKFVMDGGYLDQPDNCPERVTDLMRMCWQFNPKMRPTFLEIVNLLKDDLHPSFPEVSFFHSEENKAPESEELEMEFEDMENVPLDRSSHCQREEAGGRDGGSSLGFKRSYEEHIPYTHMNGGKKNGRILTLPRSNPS
Assay [20] concerns the target Hormonally up-regulated neu tumor-associated kinase (Homo sapiens) (UniProt P57058). The conditions noted are these: Compound concentration 1000.0 nM.
Assay [21] concerns the target Ribosomal protein S6 kinase alpha-6 (Homo sapiens) (UniProt Q9UK32). Conditions: Compound concentration 1000.0 nM.
The target of assay [22] is Protein kinase C delta type (Homo sapiens) (UniProt Q05655). The conditions noted are these: Compound concentration 1000.0 nM.
Sequence of Protein kinase C delta type (Homo sapiens) (Q05655 whole entry, looked up): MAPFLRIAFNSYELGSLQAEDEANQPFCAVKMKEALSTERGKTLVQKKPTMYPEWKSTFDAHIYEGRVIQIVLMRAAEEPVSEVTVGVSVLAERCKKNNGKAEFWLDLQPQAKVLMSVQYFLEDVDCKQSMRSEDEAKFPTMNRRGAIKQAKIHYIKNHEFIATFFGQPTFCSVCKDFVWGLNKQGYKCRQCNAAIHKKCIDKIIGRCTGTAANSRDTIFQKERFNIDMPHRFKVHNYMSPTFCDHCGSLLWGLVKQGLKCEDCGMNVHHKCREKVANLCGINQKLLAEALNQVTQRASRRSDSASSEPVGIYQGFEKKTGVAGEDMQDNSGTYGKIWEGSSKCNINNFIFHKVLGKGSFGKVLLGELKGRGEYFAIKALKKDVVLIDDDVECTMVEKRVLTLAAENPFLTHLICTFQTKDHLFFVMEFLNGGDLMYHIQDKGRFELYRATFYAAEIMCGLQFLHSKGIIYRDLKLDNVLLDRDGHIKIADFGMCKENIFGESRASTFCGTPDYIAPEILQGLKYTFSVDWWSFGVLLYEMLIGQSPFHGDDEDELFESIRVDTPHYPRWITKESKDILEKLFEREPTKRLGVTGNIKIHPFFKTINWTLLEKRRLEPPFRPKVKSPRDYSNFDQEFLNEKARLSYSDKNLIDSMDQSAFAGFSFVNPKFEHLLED
In assay [23] the target is Serine/threonine-protein kinase SIK1 (Homo sapiens) (UniProt P57059). Conditions: Compound concentration 1000.0 nM.
Sequence of Serine/threonine-protein kinase SIK1 (Homo sapiens) (P57059 whole entry): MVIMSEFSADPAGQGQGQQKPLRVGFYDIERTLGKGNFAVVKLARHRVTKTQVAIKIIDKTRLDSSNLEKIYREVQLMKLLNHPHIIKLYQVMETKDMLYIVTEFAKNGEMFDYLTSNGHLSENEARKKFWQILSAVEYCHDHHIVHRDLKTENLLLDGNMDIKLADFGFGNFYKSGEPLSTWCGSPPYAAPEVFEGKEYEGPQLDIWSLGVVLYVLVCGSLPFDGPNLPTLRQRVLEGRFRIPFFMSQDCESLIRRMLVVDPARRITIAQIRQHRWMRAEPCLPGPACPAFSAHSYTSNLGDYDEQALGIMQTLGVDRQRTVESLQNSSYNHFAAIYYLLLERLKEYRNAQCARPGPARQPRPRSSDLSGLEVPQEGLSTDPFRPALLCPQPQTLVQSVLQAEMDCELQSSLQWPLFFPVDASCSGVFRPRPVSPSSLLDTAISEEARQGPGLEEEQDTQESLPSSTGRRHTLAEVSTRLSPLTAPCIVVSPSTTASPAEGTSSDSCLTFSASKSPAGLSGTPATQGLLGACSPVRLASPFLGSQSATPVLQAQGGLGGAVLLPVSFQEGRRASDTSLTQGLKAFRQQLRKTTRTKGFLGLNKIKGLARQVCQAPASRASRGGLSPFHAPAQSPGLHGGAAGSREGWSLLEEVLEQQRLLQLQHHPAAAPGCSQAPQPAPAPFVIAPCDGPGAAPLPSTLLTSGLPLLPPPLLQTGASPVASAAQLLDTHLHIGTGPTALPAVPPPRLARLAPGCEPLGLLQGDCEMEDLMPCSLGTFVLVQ
In assay [24] the target is Uncharacterized serine/threonine-protein kinase SBK3 (Homo sapiens) (UniProt P0C264). Conditions: Compound concentration 1000.0 nM.
Assay [25] deals with Tyrosine-protein kinase ABL1 (Homo sapiens), P00519 [T315I]. The conditions noted are these: Compound concentration 1000.0 nM.
In assay [26] the target is Mitogen-activated protein kinase kinase kinase 5 (Homo sapiens) (UniProt Q99683). Conditions: Compound concentration 1000.0 nM.
The target of assay [27] is Ephrin type-B receptor 3 (Homo sapiens) (UniProt P54753). The experiment in a line: EphB3 (h) Millipore kinase activity assay. The conditions noted are these: Compound concentration 1.0 uM.
For assay [28], the species on record is Rattus norvegicus. The assay can be described thus: Inhibition of Glutamate, NMDA, Phencyclidine at 10 µM in the Eurofins-Panlabs radioligand binding assay (Eurofins_assay_233000). The assay is classed as protein-complex assay. Conditions: Compound concentration 10.0 uM.
For assay [29], the target named is Protein kinase C eta type (Homo sapiens) (UniProt P24723). The assay can be described thus: PKCeta (h) Millipore kinase activity assay. The conditions noted are these: Compound concentration 1.0 uM.
The target in assay [30] is Platelet-derived growth factor receptor alpha (Homo sapiens) (UniProt P16234). The experiment in a line: PDGFRalpha (h) Millipore kinase activity assay. Conditions: Compound concentration 1.0 uM.
Assay [31] addresses Serine/threonine-protein kinase 4 (Homo sapiens) (UniProt Q13043). The assay can be described thus: MST1 (h) Millipore kinase activity assay. Conditions: Compound concentration 1.0 uM.
The target in assay [32] is Glutamate NMDA receptor (Rattus norvegicus) (UniProt P35439+Q00959+Q00960+Q00961+Q62645+Q8VHN2+Q9R1M7). The conditions noted are these: Compound concentration 10.0 uM.
Assay [33] addresses GABA-A receptor; anion channel (Rattus norvegicus) (UniProt O09028+P15431+P18506+P18508+P19969+P20236+P23574+P23576+P28471+P28473+P30191+P62813+P63079+P63138+Q91ZM7+Q9ES14). The conditions noted are these: Compound concentration 10.0 uM.
In assay [34] the target is Cyclin-dependent kinase 5/CDK5 activator 1 (Homo sapiens) (UniProt Q00535+Q15078). The assay can be described thus: CDK5/p35 (h) Millipore kinase activity assay. The conditions noted are these: Compound concentration 1.0 uM. The assay is classed as protein-complex assay.
Assay [35] concerns the target D(2) dopamine receptor (Homo sapiens) (UniProt P14416). The conditions noted are these: Compound concentration 10.0 uM.
The target in assay [36] is Hepatocyte growth factor receptor (Homo sapiens, UniProt P08581). The assay can be described thus: Cellular mechanistic assay using […] cells and p-MET. The assay is classed as cell-based, MKN-45.
Assay [37] is filed under the species Rattus norvegicus. The conditions noted are these: Compound concentration 10.0 uM.
For assay [38], the target named is D(1A) dopamine receptor (Homo sapiens) (UniProt P21728). The conditions noted are these: Compound concentration 10.0 uM.
Assay [39] concerns the target Glycogen synthase kinase-3 alpha (Homo sapiens) (UniProt P49840). The assay can be described thus: GSK3alpha (h) Millipore kinase activity assay. Conditions: Compound concentration 1.0 uM.
For assay [40], the species on record is Rattus norvegicus. The experiment in a line: Testosterone Eurofins-Panlabs radioligand binding assay. Further details: ligand concentration 1.5 nM. Conditions: Compound concentration 10.0 uM.
In assay [41] the target is Muscle, skeletal receptor tyrosine-protein kinase (Homo sapiens) (UniProt O15146). The assay can be described thus: MuSK (h) Millipore kinase activity assay. The conditions noted are these: Compound concentration 1.0 uM.
For assay [42], the target named is CDK9/cyclin T1 (Homo sapiens) (UniProt O60563+P50750). The assay can be described thus: CDK9/cyclin T1 (h) Millipore kinase activity assay. In kind it is protein-complex assay. The conditions noted are these: Compound concentration 1.0 uM.
Assay [43] addresses Estrogen receptor (Homo sapiens) (UniProt P03372). The conditions noted are these: Compound concentration 10.0 uM.
In assay [44] the target is Tyrosine-protein kinase Lyn (Homo sapiens) (UniProt P07948). The assay can be described thus: Lyn (h) Millipore kinase activity assay. The conditions noted are these: Compound concentration 1.0 uM.
Assay [45] has as its target Serine/threonine-protein kinase SIK1 (Homo sapiens) (UniProt P57059). The experiment in a line: SIK (h) Millipore kinase activity assay. The conditions noted are these: Compound concentration 1.0 uM.

Sequence of Serine/threonine-protein kinase 4 (Homo sapiens) (Q13043 whole entry): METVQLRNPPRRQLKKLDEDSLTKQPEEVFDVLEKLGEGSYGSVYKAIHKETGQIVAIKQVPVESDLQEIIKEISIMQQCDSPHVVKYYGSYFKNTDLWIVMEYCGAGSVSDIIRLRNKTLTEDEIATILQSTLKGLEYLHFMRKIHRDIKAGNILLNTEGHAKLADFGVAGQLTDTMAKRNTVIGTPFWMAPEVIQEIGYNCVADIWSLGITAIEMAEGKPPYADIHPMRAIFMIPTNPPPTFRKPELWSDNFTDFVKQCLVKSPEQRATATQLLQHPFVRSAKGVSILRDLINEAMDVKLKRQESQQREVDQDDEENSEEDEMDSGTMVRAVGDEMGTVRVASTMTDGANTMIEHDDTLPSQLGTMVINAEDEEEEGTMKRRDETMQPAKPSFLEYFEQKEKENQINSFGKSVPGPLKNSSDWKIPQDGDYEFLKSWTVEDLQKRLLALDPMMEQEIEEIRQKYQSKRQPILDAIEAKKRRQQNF
Sequence of Serine/threonine-protein kinase 26 (Homo sapiens) (Q9P289 2-416 limits assumed): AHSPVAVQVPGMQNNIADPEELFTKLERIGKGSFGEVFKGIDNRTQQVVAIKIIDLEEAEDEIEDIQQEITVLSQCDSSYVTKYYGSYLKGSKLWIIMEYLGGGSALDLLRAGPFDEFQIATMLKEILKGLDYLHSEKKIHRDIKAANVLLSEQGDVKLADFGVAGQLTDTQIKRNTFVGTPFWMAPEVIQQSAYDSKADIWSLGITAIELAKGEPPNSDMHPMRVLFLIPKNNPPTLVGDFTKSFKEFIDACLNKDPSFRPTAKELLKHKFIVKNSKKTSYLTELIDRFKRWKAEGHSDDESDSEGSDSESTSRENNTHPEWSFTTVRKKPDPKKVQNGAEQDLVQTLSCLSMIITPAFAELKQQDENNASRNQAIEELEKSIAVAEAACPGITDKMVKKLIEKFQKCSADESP

For `CC1=C(C#N)[C@@H](c2ccc3[nH]nc(C)c3c2)C(C#N)=C(c2ccc(Cl)cc2)N1` [BAY-827], the residual activity in assay [1] was 100%; in assay [2] it was 52.6%; in assay [3], 100%; in assay [4] it was 100%; in assay [5] it was 100%; in [6], 100%. The residual activity is 100% in [7]; 100% in assay [8]; 91.2% in assay [9]; 100% in assay [10]; 86.6% in assay [11]; 88.5% in [12]. The residual activity in assay [13], in [14], in assay [15], in assay [16], in [17] and in assay [18] was 100% in each case. Besides, the residual activity was 100% in assay [19]; 81.4% in assay [20]; 77.4% in assay [21]; 86.3% in [22]; 100% in assay [23]; 100% in assay [24]. Moreover, the residual activity in assay [25] was 88.1%; in assay [26], 100%.
One may read the inhibition as the relative decrease from the control value, in per cent. The IC50 is the midpoint of a concentration-inhibition curve. In the case of `CC1=C(C#N)C(c2ccc3[nH]nc(C)c3c2)C(C#N)=C(C)N1` [BAY-474], the inhibition in assay [27] is -5%; in the assay listed under Rattus norvegicus [28], 4%; in [29], -3%; in [30], -2%; in assay [31], 19%; in assay [32], 9%. Further, the inhibition in assay [33] is -2%; in assay [34] it was -1%; in assay [35], 2%; in the assay filed under Rattus norvegicus [37], 1%; in [38], 3%; in assay [39] it was -3%. Moreover, the inhibition is 12% in the assay listed under Rattus norvegicus [40]; 19% in assay [41]; -10% in [42]; 2% in assay [43]; -1% in assay [44]; -7% in [45]. Besides, the IC50 in assay [36] was 2.9 nM (active).
